Data: patent US20210077461A1, “NEW USE” (Novartis AG, priority 2013, published 2021)

What was measured:
[1] = system: patients with chronic symptomatic heart failure and reduced ejection fraction (HF-REF); assay: PARADIGM-HF randomized double-blind trial, LCZ696 versus enalapril: efficacy outcomes; assay type: in vivo, human; conditions: for Death from any cause, number of patients / Death from any cause, percent of patients / Death from cardiovascular causes or first hospitalization for worsening heart failure (primary composite outcome), number of patients with an event / Death from cardiovascular causes or first hospitalization for worsening heart failure (primary composite outcome), percent of patients / Death from cardiovascular causes, number of patients / Death from cardiovascular causes, percent of patients / Decline in renal function, percent of patients / First hospitalization for worsening heart failure, number of patients / First hospitalization for worsening heart failure, percent of patients / Protocol-defined decline in renal function, number of patients: LCZ696 200 mg bid (N = 4187) or enalapril 10 mg bid (N = 4212); for Death from any cause, number of patients / Death from any cause, percent of patients / Death from cardiovascular causes or first hospitalization for worsening heart failure (primary composite outcome), number of patients with an event / Death from cardiovascular causes or first hospitalization for worsening heart failure (primary composite outcome), percent of patients / Death from cardiovascular causes, number of patients / Death from cardiovascular causes, percent of patients / Decline in renal function, percent of patients / First hospitalization for worsening heart failure, number of patients / First hospitalization for worsening heart failure, percent of patients / Protocol-defined decline in renal function, number of patients / New onset atrial fibrillation, number of patients with an event (as a fraction of number of patients at risk) / New onset atrial fibrillation, percent of patients at risk: median follow-up 27 months; for Progressed to end-stage renal disease, number of patients / New onset atrial fibrillation, number of patients with an event (as a fraction of number of patients at risk) / New onset atrial fibrillation, percent of patients at risk: LCZ696 200 mg bid or enalapril 10 mg bid; for KCCQ clinical summary score, direction of change when zero values were not imputed for patients who died: baseline to month 8
Text: Patients with chronic HF, NYHA functional class II-IV symptoms, an elevated plasma B-type natriuretic peptide (BNP) or NT-proBNP level and, initially, a left ventricular ejection fraction of ≤40% (later amended to ≤35%) are eligible. […] Secondary outcome measures are change in the Kansas City Cardiomyopathy Questionnaire (KCCQ) clinical summary score at 8 months, change in renal function, and time to all-cause mortality.
The trial was designed by the academic members of the Executive Committee (EC) in collaboration with Novartis personnel.
Entry criteria: 1) age 18 years or older and able to give written informed consent 2) New York Heart Association (NYHA) functional class II-IV, 3) left ventricular ejection fraction (LVEF) ≤35% (initially this was ≤40% but changed in a protocol amendment dated Dec. 15, 2010), 4) plasma B-type natriuretic peptide (BNP) ≥150 pg/ml (or N-terminal [NT]-proBNP ≥600 pg/ml) at the screening visit or a BNP ≥100 pg/mL (or NT-proBNP ≥400 pg/ml) and a hospitalization for HF within the last 12 months, 5) treatment with a stable dose of an ACE inhibitor or an ARB equivalent to enalapril 10 mg/d for at least 4 weeks before the screening visit, 6) treatment with stable dose of a β-blocker for at least 4 weeks prior to Visit 1, unless contraindicated or not tolerated. Although not required, the protocol specified that an aldosterone antagonist should also be considered in all patients, taking account of renal function, serum potassium and tolerability. If given, the dose of aldosterone antagonist should be stable for at least 4 weeks prior to the screening visit.
The key exclusion criteria include: • 1. […] Previous history of intolerance to recommended target doses of ACEIs or ARBs. • 3. Known history of angioedema. • 4. Requirement of treatment with both ACEIs and ARBs. • 5. Current acute decompensated heart failure (exacerbation of chronic heart failure manifested by signs and symptoms that may require intravenous therapy). • 6. Symptomatic hypotension and/or a systolic blood pressure (SBP)<100 mmHg at Visit 1 (screening) or <95 mmHg at Visit 3 or at Visit 5 (randomization). • 7. […] Serum potassium >5.2 mmol/L at Visit 1 (screening) or >5.4 mmol/L at Visit 3 or Visit 5 (randomization). • 9. Acute coronary syndrome, stroke, transient ischemic attack, cardiac, carotid or other major CV surgery, percutaneous coronary intervention or carotid angioplasty within the 3 months prior to Visit 1. • 10. Coronary or carotid artery disease likely to require surgical or percutaneous intervention within the 6 months after Visit 1. • 11. Implantation of a cardiac resynchronization therapy device (CRT) within 3 months prior
Visit 1 or intent to implant a CRT. • 12. History of heart transplant or on a transplant list or with left ventricular assistance device. • 13. History of severe pulmonary disease. • 14. Diagnosis of peripartum or chemotherapy induced cardiomyopathy within the 12 months prior to Visit 1. • 15. Documented untreated ventricular arrhythmia with syncopal episodes within the 3 months prior to Visit 1. • 16. Symptomatic bradycardia or second or third degree atrio-ventricular block without a pacemaker. • 17. Presence of haemodynamically significant mitral and/or aortic valve disease, except mitral regurgitation secondary to left ventricular dilatation. • 18. Presence of other haemodynamically significant obstructive lesions of left ventricular outflow tract, including aortic and sub-aortic stenosis. • 19. […] Presence of any other disease with a life expectancy of <5 years.
At the screening visit, patient eligibility was assessed according to the inclusion/exclusion criteria. Any local measurement of LVEF ≤35%, made within the past 6 months, was acceptable provided there was no subsequent LVEF measurement above 35%. Eligibility BNP (and NT-proBNP), serum potassium and estimated glomerular filtration rate (eGFR) were measured in a central laboratory.

HF patients = conditions: cited from earlier work
[2] = system: patients with chronic symptomatic heart failure and reduced ejection fraction (HF-REF); assay: PARADIGM-HF: safety and tolerability
Experimental: Patients are assessed at each study visit for hyperkalaemia, symptomatic hypotension, increase in serum creatinine, angioedema and other AEs and serious AEs (SAEs). […] The dose of background disease modifying drugs, such as β-blockers, should not be reduced to facilitate maintenance of study drug. Every attempt should be made to re-challenge the patients so as to maintain as many patients as possible on the target dose of study drug.
All identified cases are submitted to an independent angioedema adjudication committee for a final decision.
Thus, this study employed a seamless design, incorporating “Phase II” into a “Phase III” outcomes trial, as considered further in the Discussion. Further interim safety assessments are planned twice a year.

hypertensive patients = conditions: cited from earlier work
[3] = in vivo; cited from earlier work
[4] = system: patients with heart failure; conditions: cited from earlier work
[5] = zero values imputed for patients who died
[6] = LCZ696 group compared with enalapril group, stratified Cox model
[7] = over the duration of the trial, LCZ696 versus enalapril
[8] = subgroups by base-line treatment

SMILES: CCOC(=O)[C@H](CCc1ccccc1)N[C@@H](C)C(=O)N1CCC[C@H]1C(=O)O [Enalapril, (2S)-1-[(2S)-2-{[(2S)-1-ethoxy-1-oxo-4-phenylbutan-2-yl]amino}propanoyl]-pyrrolidine-2-carboxylic acid, reference compound]
- Death from any cause, number of patients [1]: 835 patients
- Death from any cause, percent of patients [1]: 19.8%
- Death from cardiovascular causes or first hospitalization for worsening heart failure (primary composite outcome), number of patients with an event [1]: 1117 patients
- Death from cardiovascular causes or first hospitalization for worsening heart failure (primary composite outcome), percent of patients [1]: 26.5%
- Death from cardiovascular causes, number of patients [1]: 693 patients
- Death from cardiovascular causes, percent of patients [1]: 16.5%
- Decline in renal function, percent of patients [1]: 2.6
- First hospitalization for worsening heart failure, number of patients [1]: 658 patients
- First hospitalization for worsening heart failure, percent of patients [1]: 15.6%
- Protocol-defined decline in renal function, number of patients [1]: 108 patients
- Progressed to end-stage renal disease, number of patients [1]: 16 patients
- New onset atrial fibrillation, number of patients with an event (as a fraction of number of patients at risk) [1]: 83/2638
- New onset atrial fibrillation, percent of patients at risk [1]: (3.2)
- New onset atrial fibrillation, number of patients with an event (as a fraction of number of patients at risk) ([1]; listed as enalapril): 83 patients
- KCCQ clinical summary score, direction of change when zero values were not imputed for patients who died [1]: declined
- Mean change in KCCQ Clinical Summary Score from baseline to month 8 [1, 5]: −4.63
- Incidence of angioedema (HF patients): 0.5%
- Angioedema confirmed by blinded adjudication, number of patients ([2]; human, in vivo): 10 patients
- Patients who stopped study medication because of renal impairment ([2]; human, in vivo): 1.4%
- Patients who stopped study medication for any adverse event ([2]; human, in vivo): 12.3%
- Incidence of angioedema (hypertensive patients): 0.68%

SMILES: CCCCC(=O)N(Cc1ccc(-c2ccccc2-c2nn[n-]n2)cc1)C(C(=O)[O-])C(C)C.CCOC(=O)C(C)CC(Cc1ccc(-c2ccccc2)cc1)NC(=O)CCC(=O)[O-].[Na+].[Na+].[Na+] [LCZ696, trisodium [3-((1S,3R)-1-biphenyl-4-ylmethyl-3-ethoxycarbonyl-1-butylcarbamoyl)propionate-(S)-3′-methyl-2′-(pentanoyl{2″-(tetrazol-5-ylate)biphenyl-4′-ylmethyl}amino)butyrate] hemipentahydrate]
- Death from any cause, number of patients [1]: 711 patients
- Death from any cause, percent of patients [1]: 17.0%
- Death from cardiovascular causes or first hospitalization for worsening heart failure (primary composite outcome), number of patients with an event [1]: 914 patients
- Death from cardiovascular causes or first hospitalization for worsening heart failure (primary composite outcome), percent of patients [1]: 21.8%
- Death from cardiovascular causes, number of patients [1]: 558 patients
- Death from cardiovascular causes, percent of patients [1]: 13.3%
- Decline in renal function, percent of patients [1]: 2.3
- First hospitalization for worsening heart failure, number of patients [1]: 537 patients
- First hospitalization for worsening heart failure, percent of patients [1]: 12.8%
- Protocol-defined decline in renal function, number of patients [1]: 94 patients
- Progressed to end-stage renal disease, number of patients [1]: 8 patients
- New onset atrial fibrillation, percent of patients at risk [1]: (3.2)
- Death from any cause, hazard ratio [1, 6]: 0.84
- Death from cardiovascular causes, hazard ratio [1, 6]: 0.80
- Decline in renal function, hazard ratio [1, 6]: 0.86
- First hospitalization for worsening heart failure, hazard ratio [1, 6]: 0.79
- New onset atrial fibrillation, hazard ratio [1, 6]: 0.97
- Primary composite outcome, hazard ratio [1, 6]: 0.80
- KCCQ clinical summary score change, between-group difference when zero values were not imputed for patients who died ([1]; LCZ696 group versus enalapril group): 0.95
- KCCQ clinical summary score change at 8 months, between-group difference ([1]; LCZ696 group versus enalapril group, zero values imputed for patients who died): 1.64
- Reduction of the risk of cardiovascular death and the risk of hospitalization for heart failure compared to enalapril ([1]; LCZ696 versus ACE inhibition with enalapril): 20%
- Reduction of hospitalization for heart failure compared to enalapril ([1]; LCZ696 versus enalapril): 21%
- KCCQ clinical summary score, direction of change when zero values were not imputed for patients who died [1]: improved
- Systolic blood pressure at 8 months compared with value at randomization, lower in the LCZ696 group than in the enalapril group ([1]; difference between groups at 8 months): 3.2±0.4 mm Hg
- Number of patients needed to treat to prevent one cardiovascular death [1, 7]: 32 patients
- Number of patients needed to treat to prevent one primary event [1, 7]: 21 patients
- Mean change in KCCQ Clinical Summary Score from baseline to month 8 [1, 5]: −2.99
- Angioedema confirmed by blinded adjudication, number of patients ([2]; following randomization): 19 patients
- Cough as an adverse event, compared with the enalapril group ([2]; following randomization): less and less likely
- Experience of serum creatinine level ≥2.5 mg/dl, compared with the enalapril group ([2]; following randomization): less likely
- Experience of serum potassium level >6.0 mmol/l, compared with the enalapril group ([2]; following randomization): less likely
- Hypotension / report of symptomatic hypotension, compared with the enalapril group ([2]; following randomization): more and more likely
- Patients who stopped study medication because of renal impairment ([2]; following randomization): 0.7%
- Patients who stopped study medication for any adverse event ([2]; following randomization): 10.7%
- Hyperkalemia, compared with the enalapril group ([2]; in vivo): less
- Non-serious angioedema, compared with the enalapril group ([2]; in vivo): more
- Renal impairment, compared with the enalapril group ([2]; in vivo): less

SMILES: O=C(N[C@H]1CCS[C@H]2CCC[C@@H](C(=O)O)N2C1=O)[C@@H](S)Cc1ccccc1 [omapatrilat]
- Incidence of angioedema (HF patients): 0.8%
- Mortality and morbidity in patients with HF relative to enalapril (HF patients): encouraging trend toward reducing mortality and morbidity
- BP lowering as compared to other therapeutic classes, including ACE inhibitors and calcium channel blockers [3]: greater BP lowering
- Incidence of angioedema (hypertensive patients): 2.17%

SMILES: CCCCC(=O)N(Cc1ccc(-c2ccccc2-c2nnn[nH]2)cc1)[C@H](C(=O)O)C(C)C [valsartan, (S)—N-valeryl-N-{[2′-(1H-tetrazole-5-yl)-biphenyl-4-yl]-methyl}-valine]
- Incidence of the combined end point of mortality and morbidity, lower with valsartan than with placebo ([4]; Val-HeFT): 13.2%
- NYHA class, ejection fraction, signs and symptoms of heart failure, and quality of life as compared with placebo ([4]; Val-HeFT): significant improvements
- Number of patients hospitalized for heart failure ([4]; Val-HeFT): 346 patients
- Overall mortality compared with placebo group ([4]; Val-HeFT): similar
- Percent of patients hospitalized for heart failure ([4]; Val-HeFT): 13.8%
- Post hoc analysis of the combined end point and mortality, patients receiving both ACE inhibitors and beta-blockers [4, 8]: adverse effect
- Post hoc analysis of the combined end point and mortality, patients receiving neither or one of ACE inhibitors or beta-blockers [4, 8]: favorable effect
- Combined end point of mortality and morbidity, relative risk ([4]; valsartan versus placebo): 0.87
